Assay results reported in patent EP1153612A1, “ANTICANCER AGENT POTENTIATORS” (Tsuruo, Takashi, priority 1999, dated 2000).
Where a SMILES comes first, the peptide text is derived from it. [ ]: non-standard residue; d: D form. The star is where a group is joined. Nva = CCC[C@H](N)C(=O)O; Cbz = O=C(OCc1ccccc1)*; OtBu = CC(C)(C)O*

What was measured:
[1] = test system: human colon adenocarcinoma cell HT-29; assay: Sensitivity of cells to anticancer drug by colony formation method (M phase-synchronized cells, with or without proteasome inhibiting agent); format: cell-based; conditions: for effect of each inhibiting agent on etoposide sensitivity: etoposide 10 µg/ml, MG132, MG115 2.5 µM, E64, ZLLal 25 µM, FIG. 2; for change of cell-killing effect of camptothecin: PSI, MG132 2.5 µM 13 hours, camptothecin 4 hours, FIGS. 15 and 16
Description: In the glucose starvation environment found in the solid cancer, the effect of combined use of the proteasome inhibitor in a human colon adenocarcinoma cell HT-29 with the anticancer drug targeting topoisomerase II was tested.
Concerning culture media, for a culture condition in a normal state, RPMI 1640 medium (Nissui Pharmaceutical Co.-made) to which a 5% FBS (fetal bovine serum) was added and for the culture condition in the glucose starvation state symbolically found in the solid cancer, RPMI 1640 medium (Lifetech Oriental-made), lacking glucose, in which the 5% FBS was added were used, respectively. Culture was carried out using a CO2 incubator (Tabai Espec-made) under conditions of 5% CO2/95% air and humidity 100%.
In order to test sensitivity to the anticancer drug, the cell cycle synchronization culture methodwas employed. Nocodazol (Sigma made) was used to synchronize the cell cycle, cells in a logarithmic proliferation phase were treated with 40 ng/ml Nocodazol for 9 hours, and cells accumulated in cell division phase (Mpahse) were collected by gentle pipetting. M phase-synchronized cells collected through these steps were washed with PBS (phosphate buffered saline) followed by inoculation of 1×10^5 cells per well of 12 well-culture plate.
M phase-synchronized cells were cultured under the normal condition and the glucose starvation condition to conduct treatments with the proteasome inhibiting agent and the anticancer drug as follows. For cells under the glucose starvation condition, the culture medium, to which the proteasome inhibiting agent and the protease inhibiting agent not inhibiting proteasome were added as the control group, and the culture medium, to which no inhibiting agent has been added, was used. For cells under the normal condition, the culture medium, to which each inhibiting agent was not added, was used. After inoculation of cells, culture was carried out for 13 hours in each culture medium. […]
Sensitivity of cells to the anticancer drug was measured using the colony formation method. As described above, cells treated with the proteasome inhibiting agent and the anticancer drug were washed with PBS followed by soaking in trypsin (Lifetech Oriental made) solution and removed from a culture dish to suspend in an ordinary culture medium. These cells were inoculated again in 500 to 5000 cells for a 10 cm culture dish and cultured for 10 to 12 days to form a colony. The colony formed was fixed by 10% formaldehyde solution and stainedwith 0.01% crystal violet (Wako Pure Chemicals made) solution. Number of colony was counted and a Cell survival rate was calculated assuming that the number of colonies untreated with the anticancer drug is 1.
For reference, the proteasome inhibiting agent and the protease inhibiting agent not inhibiting proteasome used as described above were as follows. • (1) Proteasome inhibiting agent • . […] MG115 (carbobenzoxy-L-Leucyl-L-Leucyl-L-Norvalinal): final concentration 2.5 µM (Peptide Institute Inc. made) • . MG132 (carbobenzoxy-L-Leucyl-L-Leucyl-Leucinal) : final concentration 2.5 µM (Peptide Institute Inc. made) • . Lactacystin, final concentration 10 µM (Kindly supplied from The Kitasato Institute made) • (2) Protease inhibiting agent not inhibiting proteasome • . E64, final concentration 25 µM (Peptide Institute Inc. made) • . ZLLal (carbobenzoxy-L-Leucyl-L-Leucinal): final concentration 25 µM (Peptide Institute Inc. made)
The cell culture condition for both M phase-synchronized culture method and culture under the glucose starvation condition was as described in Example 1. M phase-synchronized cells were cultured in the culture medium, to which lactacystin of the final concentration 10 µM was added, or the culture medium, to which this was not added, as the proteasome inhibiting agent under the ordinary condition and the glucose starvation condition, respectively, for 13 hours. […]

[2] = test system: topoisomerase IIα; assay: Amount of expression of topoisomerase IIα in whole cell extract by western blotting; format: cell-based, human
From the text: Topoisomerase II inhibiting anticancer drug stabilizes a complex (cleavable complex) consisting of the DNA and topoisomerase IIα occurring in a catalytic reaction process of topoisomerase IIα to cause DNA damage. Therefore, cell-killing effect of the topoisomerase II-inhibiting anticancer drug depends on the amount of intracellular expression of topoisomerase IIα essential for formation of the cleavable complex. Then, the amount of expression of topoisomerase IIα in the cultured cancer cell under the glucose starvation and hypoxia environment that are found in the solid cancer and the effect of the proteasome inhibiting agent to the amount of expression were examined.
The culture condition of cells is same as that described in Example 1 including the M phase synchronous culture method and culture under the glucose starvation condition. Culture under hypoxia condition, that is found in the solid cancer, similar to glucose starvation was carried out using the culture medium (that prepared by adding 5% FBS to RPMI1640 culture medium) under the ordinary condition in a Gaspack 100 anaerobic system (Becton Dickinson made). Culture under the glucose starvation condition and hypoxia condition was carried out for 14 hours .
With the purpose to prepare a whole cell extract solution, cells culture under the above described condition were washed with an ice-cooled PBS twice and then, cells were removed from the culture dish by using a cell scraper (Sumitomo Bakelite made) for collection. Cells collected were precipitated by centrifugation and then, dissolved in an SDS sample buffer to collect as the extract solution from all cells. For reference, the composition of the SDS sample buffer was 10% v/v, glycerol, 5% 2-mercaptoethanol, 2% SDS (sodium lauryl sulfate), and 62.5 mM tris-hydrochloric acid (pH 6.8).
The amount of topoisomerase IIα in the extract solution from all cells was measured by the western blotting method. The extract solution from all cells containing a total protein quantity of 30 µg was put on an SDS polyacrylamide gel (4-20 Multigel: Daiichi Pure Chemicals K.K. made) and subjected to electrophoresis in an electrophoresis buffer (25 mM tris, 192 mM glycine, and 0.1% SDS) in a 40 mA constant current for 1 hour. Subsequently, blotting was carried out in 4°C blotting buffer (25 mM tris, 192 mM glycine, and 20% methanol) in a 50 V constant voltage for 12 hours to transfer a protein separated in the SDS polyacrylamide gel to a nitrocellulose membrane. This nitrocellulose membrane was soaked in a blocking buffer (0.1% Tween 20, 4% skim milk-added PBS) for 1 hour to carry out blocking. The nitrocellulose membrane blocked was soaked in a solution, that was prepared by adding anti-topoisomerase IIα antibody (Cambridge Research Biochemicals Corp. made) of the final concentration 1 µg/ml as the primary antibody to the blocking buffer solution, for 1 hour. The nitrocellulose membrane was washed with the blocking buffer three times (5 minutes once), and then, soaked in the solution, in which a 1/1000 volume of an antimouse antibody (Amersham Pharmacia Biotech made) labeled with horse radish peroxidase as a secondary antibody had been added to the blocking buffer, for 1 hour. The nitrocellulose membrane was washed with the blocking buffer three times (5 minutes once), and then, washed with the PBS, to which 0.1% Tween 20 was added, three times (5 minutes once). The nitrocellulose membrane after completion of antibody reaction and washing was treated with the ECL reagent (Amersham Pharmacia Biotech made) after a handling manual and a topoisomerase IIα-specific signal was detected on an X-OMAT™AR film (Kodakmade). For reference, steps after blotting was carried out in a room temperature. […]
The cell culture condition for both M phase-synchronized culture method and culture under the glucose starvation condition was as described in Example 1. […]

[3] = glucose starvation condition 14 hours, PSI, MG115, MG132 5 µM, lactacystin 10 µM, E64, ZLLal 50 µM, FIG. 5(a)-(c)
[4] = glucose starvation condition, final concentration of 2.5 µM, not presented as data

CC(C)C[C@H](NC(=O)[C@H]1O[C@@H]1C(=O)O)C(=O)NCCCCNC(=N)N [E64]
effect of each inhibiting agent on etoposide sensitivity ([1]; glucose starvation condition): seldom change sensitivity to etoposide | expressed amount of topoisomerase IIα [2, 3]: the expressed amount of topoisomerase IIα very dropped

CCC[C@@H](C=O)NC(=O)[C@H](CC(C)C)NC(=O)[C@H](CC(C)C)NC(=O)OCc1ccccc1 [MG115, carbobenzoxy-L-Leucyl-L-Leucyl-L-Norvalinal] (Cbz-Leu-Leu-[Nva]-aldehyde)
effect of each inhibiting agent on etoposide sensitivity ([1]; glucose starvation condition): enhance sensitivity of cells to etoposide | expressed amount of topoisomerase IIα [2, 3]: the expressed amount of topoisomerase IIα does not drop | expressed amount of topoisomerase IIα [2, 4]: inhibited similarly decrease in expression of topoisomerase IIα

CC(C)C[C@@H](C=O)NC(=O)[C@H](CC(C)C)NC(=O)[C@H](CC(C)C)NC(=O)OCc1ccccc1 [MG132, carbobenzoxy-L-Leucyl-L-Leucyl-Leucinal] (Cbz-Leu-Leu-Leu-aldehyde)
change of cell-killing effect of camptothecin ([1]; glucose starvation condition): also enhance the effect of camptothecin | effect of each inhibiting agent on etoposide sensitivity ([1]; glucose starvation condition): enhance sensitivity of cells to etoposide | expressed amount of topoisomerase IIα [2, 3]: the expressed amount of topoisomerase IIα does not drop | expressed amount of topoisomerase IIα [2, 4]: inhibited similarly decrease in expression of topoisomerase IIα

CC[C@H](C)[C@H](NC(=O)OCc1ccccc1)C(=O)N[C@@H](CCC(=O)OC(C)(C)C)C(=O)N[C@@H](C)C(=O)N[C@H](C=O)CC(C)C [PSI, carbobenzoxy-L-Isoleucyl-γ-t-Butyl-L-Glutamyl-L-Alany 1-L-Leucinal] (Cbz-IE(OtBu)AL-aldehyde)
sensitivity to etoposide of cancer cells, effect of inhibiting agent ([1]; glucose starvation condition, PSI 2.5 µM, 13 hours, then etoposide 1 hour, FIG. 1): cells show sensitivity to etoposide even in the glucose starvation condition | change of cell-killing effect of camptothecin ([1]; glucose starvation condition): also enhance the effect of camptothecin | expressed amount of topoisomerase IIα [2, 3]: the expressed amount of topoisomerase IIα does not drop | expressed amount of topoisomerase IIα [2, 4]: inhibited similarly decrease in expression of topoisomerase IIα

CC(C)C[C@@H](C=O)NC(=O)[C@H](CC(C)C)NC(=O)OCc1ccccc1 [ZLLal, carbobenzoxy-L-Leucyl-L-Leucinal]
effect of each inhibiting agent on etoposide sensitivity ([1]; glucose starvation condition): seldom change sensitivity to etoposide | expressed amount of topoisomerase IIα [2, 3]: the expressed amount of topoisomerase IIα very dropped

N.N.[Cl][Pt][Cl] [cisplatin]
sensitivity of cancer cells to cisplatin ([1]; under the stress environment (glucose starvation), cisplatin 4 hours, FIG. 18): high sensitivity

CC(=O)NCCSC(=O)[C@]1([C@@H](O)C(C)C)NC(=O)[C@H](C)[C@@H]1O [decarboxy lactacystin]
change of cell-killing effect of etoposide ([1]; decarboxy lactacystin 5 µM 13 hours, etoposide 4 hours, ordinary and glucose starvation condition, FIG. 19 top): enhances the cell-killing effect of etoposide | change of cell-killing effect of SN38 ([1]; ordinary condition, decarboxy lactacystin 5 µM 13 hours, SN38 4 hours, FIG. 20): enhances the cell-killing effect of SN38 | amount of expression of topoisomerase IIα ([2]; glucose starvation condition 13 hours, decarboxy lactacystin 0.5, 1, 2.5, and 5 µM, FIG. 19 bottom): inhibits lowering of expression of topoisomerase IIα by glucose starvation
